Experimental findings from patent US11564923B2, “Compounds and pharmaceutical compositions thereof for the treatment of inflammatory disorders” (Galapagos NV, priority 2017, dated 2023) are described below.

Each structure is given as a SMILES string.

Assay [1] concerns the target T1, Recombinant human TYK2 catalytic domain (amino acids 871-1187) (Homo sapiens, UniProt P29597).
T1 construct: catalytic domain (amino acids 871-1187)
T1 sequence (P29597 871-1187): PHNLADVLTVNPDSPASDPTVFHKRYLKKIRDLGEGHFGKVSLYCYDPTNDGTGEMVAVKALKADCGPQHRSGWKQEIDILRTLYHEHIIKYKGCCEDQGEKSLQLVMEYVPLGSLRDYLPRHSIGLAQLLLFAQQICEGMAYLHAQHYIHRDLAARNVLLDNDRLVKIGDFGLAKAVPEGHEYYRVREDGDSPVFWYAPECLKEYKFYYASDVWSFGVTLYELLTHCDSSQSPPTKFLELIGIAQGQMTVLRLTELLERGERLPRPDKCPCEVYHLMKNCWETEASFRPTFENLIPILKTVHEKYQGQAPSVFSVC
The assay can be described thus: TYK2 ADPglo kinase assay. Further: 12 µM ATP. In kind it is biochemical. On the procedure:
After 120 min at room temperature, reactions were stopped and the remaining ATP is depleted by adding 5 μL/well of ADP Glo Reagent (Promega, catalog number V912B). After 40 min at room temperature, 10 μl Kinase Detection Reagent (Kinase Detection Substrate (Promega, catalog number V914B) dissolved in Kinase Detection Buffer (Promega, catalog number V913B)) is added to convert ADP to ATP and to measure this newly synthesized ATP in a luciferase/luciferin reaction. Readout is performed after 30 min incubation at room temperature using the Envision. Kinase activity is calculated by subtracting the relative light units (RLU) obtained in the presence of a positive control inhibitor (10 μM staurosporine) from the RLU obtained in the presence of vehicle. The ability of a test compound to inhibit this activity (or percentage inhibition) is determined as:
RLU test compound=RLU determined for sample with test compound present
RLU control=RLU determined for sample with positive control inhibitor
RLU vehicle=RLU determined in the presence of vehicle
Dose dilution series were prepared for the compounds enabling the testing of dose-response effects in the TYK2 assay and the calculation of the IC50 for the compound. Each compound is routinely tested at concentration of 20 μM followed by a 1/5 serial dilution, 10 points in a final concentration of 1% DMSO. […] The data are expressed as the average IC50 from the assays.
A general note: ADP-Glo turns the ADP formed in a reaction into a luminescent signal.

Assay [2] deals with IFNα activation of STAT1 in PBMC. The assay can be described thus: IFNα activation of STAT1 in PBMC. In kind it is cell-based. As to conditions: Homo sapiens; IFNα activation of STAT1 in PBMC; average IC50; read-out: IFNα signaling inhibitory potency IC50. In a few lines:
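Human PBMC, with red cells lysed by NH4Cl, were pre-treated with compound for 30 min at 37 °C and 5% CO2. They were then stimulated for 30 min with recombinant human IFNα at 5 ng/mL final.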

Assay [3] relates to IL-6 stimulation, Phospho-STAT1 on CD4+ cells in human whole blood. Briefly: Human whole blood assay (hWBA), IL-6 stimulation. In kind it is cell-based. As to conditions: IL-6 10 ng/mL, pSTAT1 on CD4+ cells, read-out: IL6 IC50. On the procedure:
(§1) A flow cytometry analysis is performed to establish JAK1 and TYK2 compound potency ex vivo using human whole blood. Therefore, blood is taken from human volunteers who gave informed consent, then equilibrated for 30 min at 37° C. under gentle rocking and aliquoted in Eppendorf tubes. Compound is added at different concentrations and incubated at 37° C. for 30 min under gentle rocking and subsequently stimulated for 20 min at 37° C. under gentle rocking with interleukin 6 (IL-6) for JAK-dependent pathway stimulation or IFNα for TYK2-dependent pathway stimulation. Phospho-STAT1 is then evaluated using FACS analysis.
(§2) The remaining diluted Lyse/Fix buffer is discarded.
(§3) A 3-fold dilution series of the compound is prepared in DMSO (10 mM stock solution). Control-treated samples received DMSO instead of compound. All samples are incubated with a 1% final DMSO concentration.
Human blood is collected in heparinized tubes. The blood is divided in aliquots of 148.5 μL. Then, 1.5 μL of the test compound dilution is added to each blood aliquot and the blood samples are incubated for 30 min at 37° C. under gentle rocking. […]
(§4) Cells are then washed once with 1×PBS and analyzed on a FACSCanto II flow cytometer (BD Biosciences).
(§5) 50,000 total events are counted and Phospho-STAT1 positive cells are measured after gating on CD4+ cells, in the lymphocyte gate.

The subject of assay [4] is IFNα stimulation, Phospho-STAT1 on CD4+ cells in human whole blood. Briefly: Human whole blood assay (hWBA), IFNα stimulation. The format is cell-based. Particulars: Universal type I IFN 1000 U/mL, pSTAT1 on CD4+ cells, read-out: IFN α IC50. Here is the method: as §1, §2, §3
Human blood is collected in heparinized tubes. The blood is divided in aliquots of 148.5 μL. Then, 1.5 μL of the test compound dilution is added to each blood aliquot and the blood samples are incubated for 30 min at 37° C. under gentle rocking. One and a half microliter of 10-fold diluted IL-6 stock solution or Universal type 1 IFN is added to the blood samples (final concentration 10 ng/mL and 1000 U/mL, respectively) and samples are incubated at 37° C. for 20 min under gentle rocking.
At the end of the stimulation period, 3 mL of 1× pre-warmed Lyse/Fix buffer is immediately added to the blood samples, vortexed briefly and incubated for 15 min at 37° C. in a water bath in order to lyse red blood cells and fix leukocytes.
Tubes are centrifuged for 5 min at 400×g at 4° C. The cell pellet is washed with 3 mL of cold 1×PBS, and after centrifugation the cell pellet is resuspended in 100 μL of ice-cold 1×PBS and 900 μL ice-cold 100% MeOH is added. Cells are then incubated at 4° C. for 30 min for permeabilization.
Permeabilized cells are then washed with 1×PBS containing 3% BSA and finally resuspended in 80 μL of 1×PBX containing 3% BSA.
as §4, §5

The test system of assay [5] is IL-12 activation of STAT4 in NK-92 cells. Briefly: IL-12 activation of STAT4 in NK-92 cells using AphaLISA SureFire technology. Particulars: Homo sapiens, NK92; IL-12 activation of STAT4 in NK-92 cells, AlphaLISA SureFire; average IC50; read-out: IL12 pSTAT4 IC50. The format is cell-based. In a few lines:
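NK-92 cells, starved of rhIL-2 overnight, were stimulated with rhIL-12 for 30 min at 37 °C with test compounds, then lysed. Phospho-STAT4 (Tyr693) was read by AlphaLISA SureFire. Percent inhibition versus the vehicle-plus-trigger signal was fitted by sigmoidal nonlinear regression to give IC50, averaged over experiments.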
A general note: Bead proximity is the source of the signal in Alpha formats.

As for `Cc1cc(C#N)ncc1Oc1cc(Nc2ccc(C(=O)N3CCN(C)CC3)nn2)c2ncn(C)c2n1` [Compound 150, 4-methyl-5-[3-methyl-7-[[6-(4-methylpiperazine-1-carbonyl)pyridazin-3-yl]amino]imidazo[4,5-b]pyridin-5-yl]oxypyridine-2-carbonitrile], the IC50 turned out to be 1.1 nM in assay [1]; 278 nM in assay [2]; 6810 nM in assay [3]; 269 nM in assay [4]; 1020 nM in assay [5].
As for `Cc1cc(C#N)ncc1Oc1cc(Nc2ccc(N3C[C@@H](C)O[C@H](C)C3)nn2)c2ncn(C)c2n1` [Compound 168, 5-[7-[[6-[(2R,6R)-2,6-dimethylmorpholin-4-yl]pyridazin-3-yl]amino]-3-methylimidazo[4,5-b]pyridin-5-yl]oxy-4-methylpyridine-2-carbonitrile], the IC50 in assay [1] was 2.39 nM; in assay [2], 82 nM; in assay [4], 1070 nM; in assay [5], 87 nM.

The term IC50 denotes the concentration that inhibits the measured activity by half.
